IC50 and Ki data for seven compounds are collected here from ChEMBL document CHEMBL1909046, “DrugMatrix in vitro pharmacology data”.

pIC50, pKi: −log10 of the molar value.

One data set deals with Vasopressin V1a receptor (Homo sapiens, UniProt P37288). The class given is cell membranes, Membrane. The conditions noted are these: hek293.
Data set [1] in a line: DRUGMATRIX: GABAA, Muscimol, Central radioligand binding (ligand: [3H] Muscimol). It is filed as cell membranes, Rattus norvegicus, Wistar, Brain, Membrane. The conditions noted are these: Not Active = under 50% inhibition at 10 µM.
In data set [2] the target is T1, Muscarinic acetylcholine receptor M4 (Homo sapiens, UniProt P08173). Also: in other assays of this panel Not Active means under 50% inhibition at 10 µM.
T1 sequence (P08173 whole entry): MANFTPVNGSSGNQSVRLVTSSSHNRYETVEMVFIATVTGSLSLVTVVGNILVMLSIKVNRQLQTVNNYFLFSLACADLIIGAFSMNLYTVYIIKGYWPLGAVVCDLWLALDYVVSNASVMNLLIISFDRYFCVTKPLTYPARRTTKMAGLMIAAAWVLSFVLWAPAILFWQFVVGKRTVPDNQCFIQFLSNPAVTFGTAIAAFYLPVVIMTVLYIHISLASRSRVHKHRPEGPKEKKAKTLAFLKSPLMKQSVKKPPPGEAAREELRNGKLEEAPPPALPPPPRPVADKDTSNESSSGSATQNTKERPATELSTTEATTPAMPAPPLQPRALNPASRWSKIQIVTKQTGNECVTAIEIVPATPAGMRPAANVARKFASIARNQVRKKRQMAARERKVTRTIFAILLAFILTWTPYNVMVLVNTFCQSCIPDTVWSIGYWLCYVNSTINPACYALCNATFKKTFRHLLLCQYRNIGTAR
The class given is cell membranes, CHO-K1, Membrane. Conditions: cho-k1.

For data set [3], the target named is T2, Nitric oxide synthase, inducible (Mus musculus, UniProt P29477).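 Also: inhibition of iNOS enzyme activity measured with L-arginine as substrate; in other assays of this panel Not Active means under 50% inhibition at 10 µM.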
T2 sequence (P29477 whole entry): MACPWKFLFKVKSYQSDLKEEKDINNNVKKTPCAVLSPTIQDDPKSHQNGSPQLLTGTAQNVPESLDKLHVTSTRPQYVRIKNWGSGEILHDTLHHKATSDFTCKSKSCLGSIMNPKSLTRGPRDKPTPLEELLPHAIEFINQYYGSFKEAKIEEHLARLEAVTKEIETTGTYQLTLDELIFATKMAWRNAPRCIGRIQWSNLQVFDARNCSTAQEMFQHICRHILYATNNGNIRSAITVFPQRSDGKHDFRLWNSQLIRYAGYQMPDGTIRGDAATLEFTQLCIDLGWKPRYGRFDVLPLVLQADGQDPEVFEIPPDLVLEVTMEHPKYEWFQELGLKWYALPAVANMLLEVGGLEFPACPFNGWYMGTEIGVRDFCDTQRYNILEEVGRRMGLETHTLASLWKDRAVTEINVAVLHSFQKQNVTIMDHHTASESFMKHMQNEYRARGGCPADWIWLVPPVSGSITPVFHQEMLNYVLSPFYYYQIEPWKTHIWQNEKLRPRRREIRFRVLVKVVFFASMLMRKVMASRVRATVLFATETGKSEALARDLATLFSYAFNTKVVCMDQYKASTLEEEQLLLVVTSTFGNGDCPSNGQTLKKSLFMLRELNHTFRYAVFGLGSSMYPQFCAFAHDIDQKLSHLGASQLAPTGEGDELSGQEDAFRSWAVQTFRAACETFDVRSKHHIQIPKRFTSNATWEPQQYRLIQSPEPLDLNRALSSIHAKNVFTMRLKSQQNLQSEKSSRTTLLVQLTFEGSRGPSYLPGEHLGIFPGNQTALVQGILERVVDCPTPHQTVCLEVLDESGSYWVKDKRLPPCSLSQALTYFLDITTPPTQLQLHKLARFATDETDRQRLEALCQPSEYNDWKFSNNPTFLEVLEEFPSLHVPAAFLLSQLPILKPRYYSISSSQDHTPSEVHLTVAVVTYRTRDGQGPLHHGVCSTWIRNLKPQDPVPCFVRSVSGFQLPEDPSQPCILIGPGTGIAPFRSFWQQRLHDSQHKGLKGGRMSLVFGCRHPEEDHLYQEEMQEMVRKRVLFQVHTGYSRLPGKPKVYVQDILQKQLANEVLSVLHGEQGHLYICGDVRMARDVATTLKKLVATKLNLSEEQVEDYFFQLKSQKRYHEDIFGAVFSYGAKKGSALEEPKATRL
Set-up: species or system Escherichia coli.

In the next data set the target is T3, Adenosine receptor A3 (Homo sapiens, UniProt P0DMS8).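 Also: radioligand binding assay with AB-MECA serving as the labeled ligand; in other assays of this panel Not Active means under 50% inhibition at 10 µM.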
T3 sequence (P0DMS8 whole entry): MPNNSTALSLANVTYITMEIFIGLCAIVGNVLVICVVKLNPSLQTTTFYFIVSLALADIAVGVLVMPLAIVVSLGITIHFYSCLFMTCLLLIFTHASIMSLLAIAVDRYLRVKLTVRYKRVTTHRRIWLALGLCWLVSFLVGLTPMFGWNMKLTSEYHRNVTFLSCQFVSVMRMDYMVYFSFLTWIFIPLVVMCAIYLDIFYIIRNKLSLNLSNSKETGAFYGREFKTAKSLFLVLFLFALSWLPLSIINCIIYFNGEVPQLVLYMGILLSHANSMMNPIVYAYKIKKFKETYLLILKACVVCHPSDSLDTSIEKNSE
It is filed as cell membranes, CHO-K1, Membrane. The conditions noted are these: for pKi: read-out: Ki.

In another data set the target is T4, Cytochrome P450 1A2 (Homo sapiens, UniProt P05177). Also: in other assays of this panel Not Active means under 50% inhibition at 10 µM.
T4 sequence (P05177 whole entry): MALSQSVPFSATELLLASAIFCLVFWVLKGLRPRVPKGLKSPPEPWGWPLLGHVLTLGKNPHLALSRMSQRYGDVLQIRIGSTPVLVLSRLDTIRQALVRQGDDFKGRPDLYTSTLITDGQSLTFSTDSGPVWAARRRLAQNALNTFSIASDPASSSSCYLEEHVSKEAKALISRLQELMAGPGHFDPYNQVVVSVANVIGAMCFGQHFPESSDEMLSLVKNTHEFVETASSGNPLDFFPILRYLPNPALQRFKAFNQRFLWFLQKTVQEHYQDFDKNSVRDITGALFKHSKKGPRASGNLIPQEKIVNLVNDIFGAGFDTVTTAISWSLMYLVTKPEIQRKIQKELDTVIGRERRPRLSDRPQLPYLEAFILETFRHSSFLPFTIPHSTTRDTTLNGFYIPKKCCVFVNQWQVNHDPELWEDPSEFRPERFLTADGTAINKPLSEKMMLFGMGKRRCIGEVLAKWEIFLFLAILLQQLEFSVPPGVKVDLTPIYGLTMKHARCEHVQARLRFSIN
Conditions: bti-tn-5b1-4.

In another data set the target is Estrogen receptor beta (Homo sapiens, UniProt Q92731). Conditions: sf9. Also: in other assays of this panel Not Active means under 50% inhibition at 10 µM.
Estrogen receptor beta, sequence (Q92731 whole entry): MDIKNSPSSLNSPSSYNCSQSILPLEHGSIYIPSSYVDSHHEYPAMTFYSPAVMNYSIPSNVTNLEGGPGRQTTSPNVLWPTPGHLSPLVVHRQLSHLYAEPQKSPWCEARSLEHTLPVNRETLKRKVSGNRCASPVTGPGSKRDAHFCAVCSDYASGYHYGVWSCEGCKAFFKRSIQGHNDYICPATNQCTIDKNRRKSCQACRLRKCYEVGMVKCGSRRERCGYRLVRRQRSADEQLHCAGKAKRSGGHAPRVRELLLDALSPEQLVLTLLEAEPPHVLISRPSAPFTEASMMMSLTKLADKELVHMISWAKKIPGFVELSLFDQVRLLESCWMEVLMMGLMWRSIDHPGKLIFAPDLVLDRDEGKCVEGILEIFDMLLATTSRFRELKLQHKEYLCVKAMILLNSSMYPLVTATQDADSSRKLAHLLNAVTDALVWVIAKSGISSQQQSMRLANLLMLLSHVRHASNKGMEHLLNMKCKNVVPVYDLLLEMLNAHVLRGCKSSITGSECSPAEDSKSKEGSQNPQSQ

Vasopressin V1a receptor, sequence (P37288 whole entry): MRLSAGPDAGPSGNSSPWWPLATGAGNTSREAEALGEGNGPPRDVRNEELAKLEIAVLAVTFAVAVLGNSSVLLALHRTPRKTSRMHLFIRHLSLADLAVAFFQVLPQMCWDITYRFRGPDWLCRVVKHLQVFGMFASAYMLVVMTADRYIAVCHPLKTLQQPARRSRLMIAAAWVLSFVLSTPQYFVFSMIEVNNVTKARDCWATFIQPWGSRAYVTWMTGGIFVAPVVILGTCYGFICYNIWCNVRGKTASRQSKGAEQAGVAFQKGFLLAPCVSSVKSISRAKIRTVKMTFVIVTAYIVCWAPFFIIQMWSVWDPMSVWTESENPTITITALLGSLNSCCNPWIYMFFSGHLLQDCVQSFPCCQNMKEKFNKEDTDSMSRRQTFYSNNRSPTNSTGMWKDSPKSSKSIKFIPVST

Take `Nc1ccc(S(=O)(=O)Nc2ncccn2)cc1` [SULFADIAZINE]: the IC50 entry (at Vasopressin V1a receptor; in data set [1]; in data set [2]; in data set [3]; at Adenosine receptor A3 (cho-k1); at Cytochrome P450 1A2) was “Not Active” throughout. For the same compound, on Estrogen receptor beta, the IC50 result is “Not Active”. For the same compound, the Ki entry (in data set [1]; at Cytochrome P450 1A2) was “Not Active” in each case.
As for `COc1ncnc(NS(=O)(=O)c2ccc(N)cc2)c1OC` [SULFADOXINE], the IC50 result (at Vasopressin V1a receptor; in data set [1]; in data set [2]; in data set [3]; against Adenosine receptor A3 (cho-k1); at Cytochrome P450 1A2) was “Not Active” throughout. In addition, the IC50 result at Estrogen receptor beta was “Not Active”. Moreover, the Ki result (in data set [1]; at Cytochrome P450 1A2) was “Not Active” in each case.
With `C[C@]12CC[C@H]3[C@@H](CCC4=CC(=O)CC[C@@]43C)[C@@H]1CC[C@@H]2O` [TESTOSTERONE], the IC50 entry (against Vasopressin V1a receptor; in data set [1]; in data set [2]; in data set [3]; on Adenosine receptor A3 (cho-k1); against Cytochrome P450 1A2) was “Not Active” in each case. Besides, the IC50 entry at Estrogen receptor beta is listed as “Not Active”. Moreover, the Ki result (in data set [1]; on Cytochrome P450 1A2) was “Not Active” throughout.
In the case of `C[C@@H]1C[C@H]2[C@@H]3CCC4=CC(=O)C=C[C@]4(C)C3=CC[C@]2(C)[C@H]1C(=O)CN1CCN(c2cc(N3CCCC3)nc(N3CCCC3)n2)CC1` [TIRILAZAD], the IC50 result (on Vasopressin V1a receptor; in data set [1]; in data set [2]; in data set [3]; on Adenosine receptor A3 (cho-k1); on Cytochrome P450 1A2) was “Not Active” in each case. In addition, the IC50 result against Estrogen receptor beta is “Not Active”. Besides, the Ki result (in data set [1]; at Cytochrome P450 1A2) was “Not Active” throughout.
For the compound `COc1cc(C(=O)NS(=O)(=O)c2ccccc2C)ccc1Cc1cn(C)c2ccc(NC(=O)OC3CCCC3)cc12` [ZAFIRLUKAST], the IC50 entry (at Vasopressin V1a receptor; in data set [1]; in data set [2]; in data set [3]; against Cytochrome P450 1A2; on Estrogen receptor beta) was “Not Active” throughout. Also, the Ki entry (in data set [1]; at Cytochrome P450 1A2) was “Not Active” each time. Also, the pIC50 at Adenosine receptor A3 (read-out: IC50) is 5.87. Moreover, the pKi on Adenosine receptor A3 is 6.11.
For STANNOUS FLUORIDE, the IC50 entry (against Vasopressin V1a receptor; in data set [1]; in data set [2]; in data set [3]; against Adenosine receptor A3 (cho-k1); against Cytochrome P450 1A2) was “Not Active” throughout. In addition, on Estrogen receptor beta, the IC50 entry is reported as “Not Active”. Besides, the Ki entry (on Vasopressin V1a receptor; in data set [1]; in data set [2]; in data set [3]; at Adenosine receptor A3 (cho-k1); at Cytochrome P450 1A2) was “Not Active” each time. Besides, on Estrogen receptor beta, the Ki entry is reported as “Not Active”.
For THIMEROSAL, the IC50 entry (on Vasopressin V1a receptor; in data set [1]; in data set [2]; in data set [3]; at Cytochrome P450 1A2; on Estrogen receptor beta) was “Not Active” in each case. Also, the Ki entry (at Vasopressin V1a receptor; in data set [1]; in data set [2]; in data set [3]; at Cytochrome P450 1A2; on Estrogen receptor beta) was “Not Active” each time. Further, the pKi at Adenosine receptor A3 (cho-k1) is 5.72.
